Measured values: patent publication US6608082B1, “Treatment of erectile dysfunction using isoquinoline compound melanocortin receptor ligands” (Lion Bioscience AG, priority 1998, dated 2003)
Like-named read-outs stand apart in the source and are kept apart here. Blank lines part the entries; values can stand above or below the molecule they belong to.

Biological target: T1, MCR-1 (Homo sapiens, UniProt Q01726)
T1 construct: expressed in transfected cells; host or cells: HEK 293
Assay: Melanocortin receptor binding assay, competition with 125I-HP 467, HEK 293 cells expressing hMCR-1
Details: for IC50: read-out: MC-1 IC50; for % Disp. MC-1 10 μM: displacement of 125I-HP 467 at 10 μM isoquinoline compound; for % Disp. of 125I-HP 467 (first of duplicate) / % Disp. of 125I-HP 467 (second of duplicate): 10 μM isoquinoline compound; for % Disp. of 125I-HP 467 (first of duplicate): HEK 293 cells expressing MCR-1, duplicate 1; for % Disp. of 125I-HP 467 (second of duplicate): HEK 293 cells expressing MCR-1, duplicate 2
Procedure, shortened: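 Test compounds compete on intact HEK 293 cells carrying hMCR-1 (2×10^4 per tube) or hMCR-4 (4×10^3 per tube), suspended in PBS, 10% calf serum, 1 mM CaCl2.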

[1] = inhibition of binding of 125I-HP 467, HEK 293 cells expressing MCR-1
[2] = competition with 125I-HP 467, HEK 293 cells expressing MCR-1

T1 sequence (Q01726 whole entry): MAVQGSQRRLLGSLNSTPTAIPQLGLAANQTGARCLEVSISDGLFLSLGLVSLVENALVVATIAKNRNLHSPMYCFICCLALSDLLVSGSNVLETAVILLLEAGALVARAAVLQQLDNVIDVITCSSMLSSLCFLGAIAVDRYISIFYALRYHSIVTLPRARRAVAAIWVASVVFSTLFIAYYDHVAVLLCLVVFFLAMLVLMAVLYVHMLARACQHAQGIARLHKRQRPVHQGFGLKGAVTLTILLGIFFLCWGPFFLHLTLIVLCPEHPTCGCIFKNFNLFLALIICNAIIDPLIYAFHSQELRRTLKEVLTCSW

% Disp. MC-1 10 μM (first of duplicate): 51.8%
% Disp. MC-1 10 μM (second of duplicate): 53.6%
SMILES: NCCN1Cc2ccccc2C(CNC2CCCCC2)C1c1ccc(F)c(Br)c1 (stereo not drawn) [TRG 2405-36]

% Disp. MC-1 10 μM (first of duplicate): 21.5%
% Disp. MC-1 10 μM (second of duplicate): 31.2%
SMILES: NCCN1Cc2ccccc2C(CNC2CCCCC2)C1c1ccc(Br)o1 (stereo not drawn) [TRG 2405-89]

% Disp. MC-1 10 μM (first of duplicate): 49.8%
% Disp. MC-1 10 μM (second of duplicate): 49%
SMILES: Cc1ccc(C2C(CNC3CCCCC3)c3ccccc3CN2CCN)cc1 (stereo not drawn) [TRG 2405-69]

% Disp. MC-1 10 μM (first of duplicate): 43.3%
% Disp. MC-1 10 μM (second of duplicate): 43.4%
SMILES: NCCN1Cc2ccccc2C(CNC2CCCCC2)C1c1ccsc1 (stereo not drawn) [TRG 2405-53]

% Disp. MC-1 10 μM (first of duplicate): 35.9%
% Disp. MC-1 10 μM (second of duplicate): 34.7%
SMILES: NCCN1Cc2ccccc2C(CNC2CCCCC2)C1c1ncc[nH]1 (stereo not drawn) [TRG 2405-18]

% Disp. MC-1 10 μM (first of duplicate): 19.6%
% Disp. MC-1 10 μM (second of duplicate): 19.8%
SMILES: NCCN1Cc2ccccc2C(CNC2CCCCC2)C1c1cccc(F)c1 (stereo not drawn) [TRG 2405-41]

% Disp. MC-1 10 μM (first of duplicate): 52.4%
% Disp. MC-1 10 μM (second of duplicate): 54.3%
SMILES: CNC(CN)CN1Cc2ccccc2C(CNC2CCCCC2)C1c1cc(Cl)cc(Cl)c1 (mixture of isomers) [TRG 2405-120]

% Disp. of 125I-HP 467 (first of duplicate): 72%
% Disp. of 125I-HP 467 (second of duplicate): 64.6%
SMILES: CNC(CN)CN1Cc2ccccc2C(CNC2CCCCC2)C1c1nccs1 (stereo not drawn) [TRG 2405-180]

% Disp. of 125I-HP 467 (first of duplicate): 65%
% Disp. of 125I-HP 467 (second of duplicate): 65.5%
SMILES: CNC(CN)CCCCN1Cc2ccccc2C(CNC2CCCCC2)C1c1ccc(F)c(F)c1 (mixture of isomers) [TRG 2405-207]

% Disp. MC-1 10 μM (first of duplicate): 62.3%
% Disp. MC-1 10 μM (second of duplicate): 63%
SMILES: CNC(CN)CN1Cc2ccccc2C(CNC2CCCCC2)C1c1ccc(Cl)c(Cl)c1 (stereo not drawn) [TRG 2405-116]

% Disp. of 125I-HP 467 (first of duplicate): 62.2%
% Disp. of 125I-HP 467 (second of duplicate): 47.8%
SMILES: CNC(CN)CCCCN1Cc2ccccc2C(CNC2CCCCC2)C1c1ccc(SC)cc1 (stereo not drawn) [TRG 2405-237]

% Disp. MC-1 10 μM (first of duplicate): 28.5%
% Disp. MC-1 10 μM (second of duplicate): 26.2%
SMILES: NCCN1Cc2ccccc2C(CNC2CCCCC2)C1c1cc(O)cc(O)c1 (stereo not drawn) [TRG 2405-29]

% Disp. of 125I-HP 467 (first of duplicate): 41.2%
% Disp. of 125I-HP 467 (second of duplicate): 47.3%
SMILES: CNC(CN)CCCCN1Cc2ccccc2C(CNC2CCCCC2)C1c1c(F)cccc1F (stereo not drawn) [TRG 2405-191]

% Disp. MC-1 10 μM (first of duplicate): 51.6%
% Disp. MC-1 10 μM (second of duplicate): 51.7%
SMILES: CNC(CN)CN1Cc2ccccc2C(CNC2CCCCC2)C1c1ccoc1 (stereo not drawn) [TRG 2405-132]

% Disp. MC-1 10 μM (first of duplicate): 24.7%
% Disp. MC-1 10 μM (second of duplicate): 33.5%
SMILES: CNC(CN)CN1Cc2ccccc2C(CNC2CCCCC2)C1c1ccncc1 (stereo not drawn) [TRG 2405-164]

Continued, molecule first:

SMILES: CCNc1ccc(C2C(CN)c3ccccc3CN2CCCC(CN)NCCc2ccccc2)cc1 (stereo not drawn) [TRG 2413-11]
IC50 [1]: 130 nM

SMILES: NCC(CCCCN1Cc2ccccc2C(CN)C1c1ccc(-c2ccccc2)cc1)NCc1ccccc1 (mixture of isomers) [TRG 2411-35]
IC50 [2]: 510 nM

SMILES: CNC(CN)CCCCN1Cc2ccccc2C(CNC2CCCCC2)C1c1cc(C)c(O)c(C)c1 (stereo not drawn) [TRG 2405-212]
% Disp. of 125I-HP 467 (first of duplicate): 54.8%
% Disp. of 125I-HP 467 (second of duplicate): 45.8%

SMILES: CCCOc1ccc(C2C(CNCCc3ccccc3)c3ccccc3CN2CCCC(CN)NC)cc1 (stereo not drawn) [TRG 2412-22]
IC50 [1]: 200 nM

SMILES: CNC(CN)CN1Cc2ccccc2C(CNC2CCCCC2)C1c1cccc2c1OCO2 (stereo not drawn) [TRG 2405-98]
% Disp. MC-1 10 μM (first of duplicate): 20.1%
% Disp. MC-1 10 μM (second of duplicate): 48.3%

SMILES: CNC(CN)CCCCN1Cc2ccccc2C(CNC2CCCCC2)C1c1ccc(S(C)(=O)=O)cc1 (mixture of isomers) [TRG 2405-267]
% Disp. of 125I-HP 467 (first of duplicate): 21.5%
% Disp. of 125I-HP 467 (second of duplicate): 8.4%

SMILES: CCCCNc1ccc(C2C(CNCCc3ccccc3)c3ccccc3CN2CCCC(N)CN)cc1 (stereo not drawn) [TRG 2411-188]
IC50 [1]: 130 nM

SMILES: CNC(CN)CCCCN1Cc2ccccc2C(CNC2CCCCC2)C1c1ccnc2ccccc12 (stereo not drawn) [TRG 2405-255]
% Disp. of 125I-HP 467 (first of duplicate): 29.2%
% Disp. of 125I-HP 467 (second of duplicate): 25.3%

SMILES: CNC(C)CNC(CN)CCCN1Cc2ccccc2C(CNC2CCCCC2)C1c1ccc(-c2ccccc2)cc1 (stereo not drawn) [TRG 2411-128]
IC50 [2]: 1570 nM

SMILES: NCC(CCCN1Cc2ccccc2C(CNC2CCCCC2)C1c1ccc(-c2ccccc2)cc1)NCc1ccccc1 (stereo not drawn) [TRG 2411-135]
IC50 [2]: 1980 nM

SMILES: CCNc1ccc(C2C(CN)c3ccccc3CN2CCCCC(CN)NCCN)cc1 (stereo not drawn) [TRG 2411-71]
IC50 [2]: 390 nM

SMILES: CNC(CN)CCCCN1Cc2ccccc2C(CNC2CCCCC2)C1c1cccc2c1OCO2 (stereo not drawn) [TRG 2405-188]
% Disp. of 125I-HP 467 (first of duplicate): 66.9%
% Disp. of 125I-HP 467 (second of duplicate): 60.1%

SMILES: CCCCNc1ccc(C2C(CN)c3ccccc3CN2CCCCC(CN)NCCc2ccc(OC)cc2)cc1 (stereo not drawn) [TRG 2411-106]
IC50 [2]: 370 nM

SMILES: CCNc1ccc(C2C(CN)c3ccccc3CN2CCCC(CN)NCC)cc1 (mixture of isomers) [TRG 2411-176]
IC50 [1]: 220 nM

SMILES: CCCCNc1ccc(C2C(CN)c3ccccc3CN2CCCC(CN)NCc2ccc(OC)cc2)cc1 (stereo not drawn) [TRG 2409-226]
IC50 [2]: 100 nM

SMILES: CCCCNc1ccc(C2C(CN)c3ccccc3CN2CCCCC(CN)NCC)cc1 (stereo not drawn) [TRG 2411-101]
IC50 [2]: 100 nM
